# From patent US11109593B2, “Isoxazolin-5-one derivative and herbicide containing same as active ingredient” (HOKKO CHEMICAL INDUSTRY CO., LTD., priority 2017, dated 2021)
# Columns and labels:
# Format in all cases: in vivo
# [1] = system: broad leaf weeds (Lindernia pyxidaria and Monochoria vaginalis); assay: Test Example 1: herbicidal effect test by treatment of rice paddy soil (immediately after seeding)
# Procedure, shortened: (§1)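 Flooded paddy pot test in a glass greenhouse: emulsion diluted in water, dropped at 120 g a.i. per 10 ares just after sowing, water depth kept about 3 cm. Dry-weight reduction relative to untreated plants is scored at 14 days.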
# Echinochloa crus-galli [2] = assay: as above
# Procedure, shortened: as §1
# Scirpus juncoides [3] = assay: as above
# Procedure, shortened: as §1
# [4] = system: broad leaf weeds (Lindernia pyxidaria and Monochoria vaginalis); assay: Test Example 2: herbicidal effect test by treatment during growing period in paddy rice cultivation (seven days after seeding); conditions: for Herbicidal rate (%) Lindernia pyxidaria / Herbicidal rate (%) Monochoria vaginalis: 120 g/10a active ingredient, assessed 14 days after treatment, dry weight vs untreated area
# Procedure, shortened: (§2)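 Emulsion formulations, diluted in water, applied dropwise to flooded pots (about 3 cm water) 7 days post-seeding at 120 g a.i./10 ares. Weeds sown 30 seeds each, 0–1 cm deep in puddled paddy soil; greenhouse. Readout: % reduction in plant dry weight vs untreated, day 14, duplicates.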
# Echinochloa crus-galli [5] = assay: as above; conditions: for Herbicidal rate (%) Echinochloa crus-galli: 120 g/10a active ingredient, assessed 14 days after treatment, dry weight vs untreated area
# Procedure, shortened: as §2
# Scirpus juncoides [6] = assay: as above; conditions: for Herbicidal rate (%) Scirpus juncoides: 120 g/10a active ingredient, assessed 14 days after treatment, dry weight vs untreated area
# Procedure, shortened: as §2
# Echinochloa crus-galli [7] = assay: Test Example 3: herbicidal effect test by treatment of dry field farming soil (one day after seeding); conditions: 120 g/10a active ingredient, evaluated 14 days after treatment
# Method: (§3) This test was conducted in a double system per one agent solution concentration area, and the herbicidal rates (%) were determined by the following equation (Math. 1) on 14 days after the treatment with the agents. Herbicidal Rate (%)={1-(Average Dry Weight (g) of Plant of Treated Area)/(Average Dry Weight (g) of Plant of Untreated Area)}×100 [Math. 1]
# (§4) Herbicidal Effect Test by Treatment of Dry Field Farming Soil
# (§5) Pots with a size of 36 cm^2 were filled with a dry field farming soil (alluvium). The soil of the top layer of 1 cm and seeds of weeds, namely southern crabgrass, Echinochloa crus-galli, Chenopodium album and Amaranthus viridis, 20 seeds each, were evenly mixed, and the top layer was gently pressed. Emulsions prepared using the compounds in Table 5 below according to Formulation Example 5 were diluted with water one day after seeding, and the water-diluted agent solutions were sprayed to the soil surfaces at a ratio of 100 liters per 10 ares. The converted amount of the applied active ingredient corresponded to 120 g per 10 ares. The herbicidal effects were evaluated by the same standard as that in Test Example 1 on 14 days after the treatment with the agents. […] The compound numbers in Table 5 are the same as those in Table 1 and Table 2 above.
# Amaranthus viridis = assay: as above; conditions: 120 g/10a active ingredient, evaluated 14 days after treatment
# Method: as §3, §4, §5
# Chenopodium album = assay: as above; conditions: 120 g/10a active ingredient, evaluated 14 days after treatment
# Method: as §3, §4, §5
# southern crabgrass = assay: as above; conditions: 120 g/10a active ingredient, evaluated 14 days after treatment
# Method: as §3, §4, §5
# [8] = 120 g/10a active ingredient, 14 days after treatment, dry weight vs untreated area
# [9] = 120 g/10a, rated 14 days after treatment, paddy soil pots
# [10] = Lindernia pyxidaria, 120 g/10a active ingredient, dry weight vs untreated area, 14 days after treatment
# [11] = Monochoria vaginalis, 120 g/10a active ingredient, dry weight vs untreated area, 14 days after treatment
# [12] = 120 g/10a active ingredient, dry weight vs untreated area, 14 days after treatment
Structure (SMILES),"Herbicidal rate (%) Lindernia pyxidaria ([1]; Lindernia pyxidaria, 120 g/10a active ingredient, 14 days after treatment, dry weight vs untreated area)","Herbicidal rate (%) Monochoria vaginalis ([1]; Monochoria vaginalis, 120 g/10a active ingredient, 14 days after treatment, dry weight vs untreated area)",Herbicidal rate (%) Echinochloa crus-galli (Echinochloa crus-galli [2]; [8]),Herbicidal rate (%) Scirpus juncoides (Scirpus juncoides [3]; [8]),"herbicidal rate, Lindernia pyxidaria ([4]; Lindernia pyxidaria, 120 g/10a, rated 14 days after treatment, paddy soil pots)","herbicidal rate, Monochoria vaginalis ([4]; Monochoria vaginalis, 120 g/10a, rated 14 days after treatment, paddy soil pots)","herbicidal rate, Echinochloa crus-galli (Echinochloa crus-galli [5]; [9])","herbicidal rate, Scirpus juncoides (Scirpus juncoides [6]; [9])","herbicidal rate, Echinochloa crus-galli (Echinochloa crus-galli [7])","herbicidal rate, Amaranthus viridis (Amaranthus viridis)","herbicidal rate, Chenopodium album (Chenopodium album)","herbicidal rate, southern crabgrass (southern crabgrass)","Herbicidal rate (%) Lindernia pyxidaria [1, 10]","Herbicidal rate (%) Monochoria vaginalis [1, 11]",Herbicidal rate (%) Echinochloa crus-galli (Echinochloa crus-galli [2]; [12]),Herbicidal rate (%) Scirpus juncoides (Scirpus juncoides [3]; [12]),Herbicidal rate (%) Lindernia pyxidaria ([4]; Lindernia pyxidaria),Herbicidal rate (%) Monochoria vaginalis ([4]; Monochoria vaginalis),Herbicidal rate (%) Echinochloa crus-galli (Echinochloa crus-galli [5]),Herbicidal rate (%) Scirpus juncoides (Scirpus juncoides [6])
Cc1c(Cc2ccccc2N(S(=O)(=O)C(F)(F)F)S(=O)(=O)C(F)(F)F)c(=O)on1S(=O)(=O)C(C)C [Compound 1-1064],90%,90%,90%,90%,50%,80%,70%,90%,100%,80%,80%,60%,,,,,,,,
Cc1c(Cc2ccccc2N(C(=O)OC(C)C)S(=O)(=O)C(F)(F)F)c(=O)on1C(C)(C)C [Compound 1-641],,,,,,,,,90%,90%,90%,90%,90%,90%,90%,90%,90%,90%,90%,90%
Cc1c(Cc2ccccc2N(S(=O)(=O)C(F)(F)F)S(=O)(=O)C(F)(F)F)c(=O)on1Cc1ccccc1 [Compound 1-1011],,,,,,,,,90%,40%,40%,80%,90%,90%,90%,90%,90%,90%,40%,90%
CCn1oc(=O)c(Cc2ccccc2NS(=O)(=O)C(F)(F)F)c1C [Compound 1-98],,,,,,,,,90%,0%,0%,90%,100%,100%,100%,90%,60%,60%,80%,90%
Cc1c(Cc2ccccc2NS(=O)(=O)C(F)(F)F)c(=O)on1CCOc1ccccc1 [Compound 1-237],,,,,,,,,50%,80%,40%,50%,90%,80%,90%,80%,60%,90%,90%,90%
